Assay results: PMC5674221, “Harnessing fungal nonribosomal cyclodepsipeptide synthetases for mechanistic insights and tailored engineering” (Chemical Science, 2017)
Where two headings read alike, the source gives them in different places.

Legend:
[1] = test system: Penicillium notatum STI:50164; test: Antifungal inhibition zone test, P. notatum; type: cell-based; conditions: JMRC-No. STI:50164; Supplementary Table 6; solvent gave 10
Description: (§1) Bioactivity assays. Purified octa-enniatin B, octa-beauvericin and hexa-bassianolide were tested for antiparasitic, antibacterial and antifungal bioactivity together with standards of enniatin B, beauvericin and bassianolide. […]
(§2) Table 5). Antifungal activity was determined against Sporobolomyces salmonicolor […]
(§3) Aspergillus fumigatus Afum:00073 = ATCC46645 (Supplementary Table 6). The bacterial and fungal test strains are deposited at the Jena Microbial Resource Collection at www.jmrc.hki-jena.de. Activity was determined based on inhibition zone diameters in […]
(§4) (antifungal) in accordance to Krieg et al. (2017).10 […]
(§5) p- Colonies in inhibition zone
(§6) P- Many colonies in inhibition zone
(§7) F- Promotion of inhibition zone
(§8) A- Intimation of inhibition
(§9) Supplementary Table 6: Antifungal activity of natural and hybrid CDPs. Activity was analyzed by comparison of inhibition zone diameters.

[2] = test system: Candida albicans STI:25000; test: Antifungal inhibition zone test, C. albicans; type: cell-based; conditions: JMRC-No. STI:25000; Supplementary Table 6
Description: as §1, §2, §3, §4, §5, §6, §7, §8, §9

[3] = test system: Aspergillus fumigatus Afum:00073 = ATCC46645; test: Antifungal inhibition zone test, A. fumigatus; type: cell-based; conditions: JMRC-No. ATCC 46645; Supplementary Table 6
Description: as §1, §2, §3, §4, §5, §6, §7, §8, §9

[4] = test system: Sporobolomyces salmonicolor ST:35974; test: Antifungal inhibition zone test, S. salmonicolor; type: cell-based; conditions: JMRC-No. ST:35974; Supplementary Table 6; solvent gave 10
Description: as §1, §2, §3, §4, §5, §6, §7, §8, §9

in vitro = conditions: rat
Description: as §1
67/L82 (host free axenic amastigotes) to determine the IC50 values as previously described by Orhan et al. (2010) (Supplementary Table 4).9 Additionally, cytotoxicity was determined with an L6 rat-derived cell line (Supplementary Table 4). […]
Supplementary Table 4: Antiparasitic activity and cytotoxicity of natural and hybrid CDPs. […]
(§10) Cytotoxicity was analyzed with rat-derived L6 cells. […]

[5] = test system: Trypanosoma cruzi Tulahuen C4 (amastigotes); test: microbe, parasite or virus in culture; conditions: for IC50: read-out: IC50 Trypanosoma cruzi; for fold lower IC50 against T. cruzi than the reference drug benznidazole: given as 'up to'
Description: Bioactivity assays. Purified octa-enniatin B, octa-beauvericin and hexa-bassianolide were tested for antiparasitic, antibacterial and antifungal bioactivity together with standards of enniatin B, beauvericin and bassianolide. Antiparasitic activity assays were performed against Trypanosoma brucei rhodesiense STIB 900 (trypomastigotes), Trypanosoma cruzi Tulahuen C4 (amastigotes) and Leishmania donovani MHOM-ET-67/L82 (host free axenic amastigotes) to determine the IC50 values as previously described by Orhan et al. (2010) (Supplementary Table 4).9 Additionally, cytotoxicity was determined with an L6 rat-derived cell line (Supplementary Table 4). […]
(§11) Supplementary Table 4: Antiparasitic activity and cytotoxicity of natural and hybrid CDPs. Antiparasitic activity was analyzed against Trypanosoma brucei rhodesiense STIB 900 (trypomastigotes), Trypanosoma cruzi Tulahuen C4 (amastigotes) and Leishmania donovani MHOM-ET-67/L82 (host free axenic amastigotes) as IC50-values.
as §10

[6] = test system: Bacillus subtilis STI:10880; test: Antibacterial inhibition zone test, B. subtilis; type: cell-based; conditions: JMRC-No. STI:10880; Supplementary Table 5
Description: as §1
(§12) For antibacterial testing, the following strains were used: Bacillus subtilis STI:10880, Psudomonas aeruginosa ST:337721 (multi-resistent), Staphylococcus aureus ST:33793, Enterococcus faecalis ST:33700 (vancomycin-resistent) and Mycobacterium vaccae STI:10670 (Supplementary […]
as §3, §4
(§13) Supplementary Table 5: Antibacterial activity of natural and hybrid CDPs. Activity was analyzed by comparison of inhibition zone diameters. […]
as §5, §6, §7
(§14) A- Intimation of inhibition […]

[7] = test system: Staphylococcus aureus ST:33793; test: Antibacterial inhibition zone test, S. aureus; type: cell-based; conditions: JMRC-No. ST:33793; Supplementary Table 5
Description: as §1, §12, §3, §4, §13, §5, §6, §7, §14

[8] = test system: Mycobacterium vaccae STI:10670; test: Antibacterial inhibition zone test, M. vaccae; type: cell-based; conditions: JMRC-No. STI:10670; Supplementary Table 5
Description: as §1, §12, §3, §4, §13, §5, §6, §7, §14

[9] = test system: Trypanosoma brucei rhodesiense STIB 900 (trypomastigotes); test: microbe, parasite or virus in culture
Description: as §1
as §11, with “IC50-values. […]” for “IC50-values.”

[10] = test system: Leishmania donovani MHOM-ET-67/L82 (host free axenic amastigotes); test: microbe, parasite or virus in culture; conditions: for IC50: read-out: IC50 Leishmania donovani
Description: as §1
as §11, with “IC50-values. […]” for “IC50-values.”

[11] = test system: Pseudomonas aeruginosa ST:337721 (multi-resistent); test: Antibacterial inhibition zone test, P. aeruginosa; type: cell-based; conditions: JMRC-No. ST:337721; Supplementary Table 5; solvent gave 10
Description: as §1, §12, §3, §4, §13, §5, §6, §7, §14

[12] = test system: Enterococcus faecalis ST:33700 (vancomycin-resistent); type: cell-based; conditions: JMRC-No. ST:33700; Supplementary Table 5
Description: as §1, §12, §3, §4, §13, §5, §6, §7, §14

[13] = read-out: IC50 Trypanosoma b. rhodesiense, STIB 900, trypomastigotes, Supplementary Table 4
[14] = MHOM-ET-67/L82, host free axenic amastigotes, Supplementary Table 4 and main text
[15] = Tulahuen C4, amastigotes, Supplementary Table 4 and main text

Compound	Inhibition zone diameter, Penicillium notatum [1]	Inhibition zone diameter, Candida albicans [2]	Inhibition zone diameter, Aspergillus fumigatus [3]	Inhibition zone diameter, Sporobolomyces salmonicolor [4]	IC50 (in vitro)	IC50 ([5]; Trypanosoma cruzi, TULAHUEN)	Inhibition zone diameter, Bacillus subtilis [6]	Inhibition zone diameter, Staphylococcus aureus [7]	Inhibition zone diameter, Mycobacterium vaccae [8]	IC50 ([9]; Trypanosoma brucei, RHODESIENSE|STIB900, read-out: IC50 Trypanosoma b. rhodesiense)	IC50 ([10]; Leishmania donovani)	Inhibition zone diameter, Pseudomonas aeruginosa (multi-resistent) [11]	IC50 [9, 13]	IC50 [10, 14]	IC50 [5, 15]	Inhibition zone diameter, Enterococcus faecalis (vancomycin-resistent) [12]	activity against Trypanosoma b. rhodesiense (in words) [9]	activity against Leishmania donovani (in words) [10]	activity against Trypanosoma cruzi (in words) [5]	fold lower IC50 against T. cruzi than the reference drug benznidazole [5]
C[C@@H]1[C@H](O)[C@@H](C)/C=C/C=C/C=C/C=C/C=C/C=C/C=C/[C@H](O[C@@H]2O[C@H](C)[C@@H](O)[C@H](N)[C@@H]2O)C[C@@H]2O[C@](O)(C[C@@H](O)C[C@@H](O)[C@H](O)CC[C@@H](O)C[C@@H](O)CC(=O)O[C@H]1C)C[C@H](O)[C@H]2C(=O)O [Amphotericin B, amphotericin B]	18p	20	20	18p	–	–	–	–	–	–	–	–	–	–	–	–	–	–	–	–
O=C(Cn1ccnc1[N+](=O)[O-])NCc1ccccc1 [Benznidazole, benznidazole]	–	–	–	–	> 380000 nM	6530 nM	–	–	–	–	–	–	–	–	–	–	–	–	–	–
O=C(O)c1cn(C2CC2)c2cc(N3CCNCC3)c(F)cc2c1=O [Ciprofloxacin, ciprofloxacin]	–	–	–	–	–	–	29	0	20p	–	–	–	–	–	–	–	–	–	–	–
Nc1nc(N)nc(Nc2ccc([As]3SCC(CO)S3)cc2)n1 (stereo not drawn) [Melarsoprol, melarsoprol]	–	–	–	–	28600 nM	–	–	–	–	7 nM	–	–	–	–	–	–	–	–	–	–
CCCCCCCCCCCCCCCCOP(=O)([O-])OCC[N+](C)(C)C [Miltefosine, miltefosine]	–	–	–	–	138000 nM	–	–	–	–	–	576 nM	–	–	–	–	–	–	–	–	–
CC(C)C[C@H]1C(=O)O[C@H](C(C)C)C(=O)N(C)[C@@H](CC(C)C)C(=O)O[C@H](C(C)C)C(=O)N(C)[C@@H](CC(C)C)C(=O)O[C@H](C(C)C)C(=O)N(C)[C@@H](CC(C)C)C(=O)O[C@H](C(C)C)C(=O)N1C [bassianolide]	0	0	0	0	5110 nM	–	0	0	12p	–	–	0	1690 nM	195 nM	1390 nM	0	–	–	–	–
CC(C)[C@H]1OC(=O)[C@H](Cc2ccccc2)N(C)C(=O)[C@@H](C(C)C)OC(=O)[C@H](Cc2ccccc2)N(C)C(=O)[C@@H](C(C)C)OC(=O)[C@H](Cc2ccccc2)N(C)C1=O [beauvericin]	14p	0	–	0	1940 nM	–	18	13	27	–	–	14P	1630 nM	311 nM	764 nM	18F	–	–	–	–
CC(C)[C@H]1C(=O)O[C@H](C(C)C)C(=O)N(C)[C@@H](C(C)C)C(=O)O[C@H](C(C)C)C(=O)N(C)[C@@H](C(C)C)C(=O)O[C@H](C(C)C)C(=O)N1C [enniatin B]	–	0	0	0	4110 nM	–	15p	15P	24	–	–	–	1050 nM	719 nM	2300 nM	–	–	–	–	–
CC(C)C[C@H]1C(=O)O[C@H](C(C)C)C(=O)N(C)[C@@H](CC(C)C)C(=O)O[C@H](C(C)C)C(=O)N(C)[C@@H](CC(C)C)C(=O)O[C@H](C(C)C)C(=O)N1C [hexa-bassianolide]	0	0	0	0	6350 nM	–	10	0	14p	–	–	–	1260 nM	315 nM	3520 nM	0	active	active	active	–
CC(C)[C@H]1OC(=O)[C@H](Cc2ccccc2)N(C)C(=O)[C@@H](C(C)C)OC(=O)[C@H](Cc2ccccc2)N(C)C(=O)[C@@H](C(C)C)OC(=O)[C@H](Cc2ccccc2)N(C)C(=O)[C@@H](C(C)C)OC(=O)[C@H](Cc2ccccc2)N(C)C1=O [octa-beauvericin]	0	0	–	0	1580 nM	–	0	0	12p	–	–	0	782 nM	144 nM	533 nM	0	–	–	–	up to 12 fold
CC(C)[C@H]1C(=O)O[C@H](C(C)C)C(=O)N(C)[C@@H](C(C)C)C(=O)O[C@H](C(C)C)C(=O)N(C)[C@@H](C(C)C)C(=O)O[C@H](C(C)C)C(=O)N(C)[C@@H](C(C)C)C(=O)O[C@H](C(C)C)C(=O)N1C [octa-enniatin B]	–	–	–	–	3900 nM	–	–	–	–	–	–	–	873 nM	70 nM	1750 nM	–	–	–	–	up to 12 fold
